In the METLIN SMRT retention time set (Domingo-Almenara et al. 2019):

Test: gradient 5% acetonitrile 3 min, to 50% in 2 min, to 85% in 15 min, held 3 min, 100 µL/min
Conditions: column: Zorbax Extend-C18 2.1 x 50 mm; eluents: water / acetonitrile, 0.1% formic acid
Procedure, shortened: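 A Zorbax Extend-C18 column (2.1 × 50 mm, 1.8 μm) run at 100 μL/min with water and acetonitrile, both containing 0.1% formic acid, separated mixtures of ~100 pure standards. The HPLC was coupled to a quadrupole time-of-flight mass spectrometer operated in positive and negative ionization mode, with dead and dwell volumes of 40 μL and 900 μL. Each retention time was taken from a computationally picked adduct peak that was then manually inspected.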

| SMILES | RP-LC retention time |
| --- | --- |
| CCOc1ccc(-c2ccc(=O)n(Cc3nc(-c4ccc(OC(C)C)cc4)no3)n2)cc1 | 826 s |
| CCC(=O)NCc1nc2c(n1C)CN(C(=O)c1cccc(Br)c1)CC2 | 591 s |
| O=C(NCCc1csc(-c2cccs2)n1)C1CCN(S(=O)(=O)c2ccc(F)cc2)CC1 | 882 s |
| O=C(Nc1ccc(Cl)cc1)C1CCN(S(=O)(=O)c2ccc3[nH]c(=O)sc3c2)CC1 | 854 s |
| CCN(CC)CCNC(=O)c1nc(-c2oc3c(C)cccc3c2C)no1 | 677 s |
| Cc1noc(C2CN(C(=O)c3ccc4ncsc4c3)C2)n1 | 593 s |
| N#Cc1ccc(C(=O)NCc2[nH]nc3ccccc23)cc1 | 699 s |
| Cc1cccc(C)c1-n1ccn(Cc2nc(-c3cccc(F)c3)no2)c(=O)c1=O | 901 s |
| Cc1ccc(CNC(=O)N2CCN(c3ncccc3-c3nnc(C4CC4)o3)CC2)cc1 | 780 s |
| CCc1ccc(CN2CCC([C@@H]3CNC[C@H]3CO)CC2)cc1 | 558 s |
| CCOC(=O)C1CCN(S(=O)(=O)c2ccc3c(c2)-c2oncc2CO3)CC1 | 908 s |
| CCn1cc(CCNC(=O)Nc2ccc3c(c2)OCO3)c2cccnc21 | 672 s |
| CC(C)NC(=O)c1cc(C(C)C)[nH]n1 | 660 s |
| Cc1nnc2cc(N3CCN(S(=O)(=O)c4ccc(CC(C)C)cc4)CC3)cnn12 | 695 s |
| COc1ccc(Nc2c(-c3ccc(C)cc3)nc3cnc(Br)cn23)cc1OC | 915 s |
| O=C(c1cc(Cl)ccc1Cl)N(CCc1cccs1)C1CC1 | 1070 s |
| CCCn1ccc2oc(C)c(C(=O)N3CCN(CC(C)C)CC3)c2c1=O | 575 s |
| CCCCOc1cc(CC2CNC(=O)N2)ccc1OC (stereo not given) | 798 s |
| Cc1nn(Cc2nc(-c3ccc(NC(=O)c4ccsc4)cc3)oc2C)c(C)c1C | 955 s |
| O=C(c1cc(-c2ccncc2)n[nH]1)N1CCCC(C(=O)N2CCN(c3ncccn3)CC2)C1 (stereo not given) | 579 s |
| CC(=O)Nc1ccc(S(=O)(=O)N2CC=C(c3cn(C)c4ncccc34)CC2)cc1 | 764 s |

| SMILES | RP-LC retention time |
| --- | --- |
| Cc1ccnn1-c1ccc(SCC(=O)Nc2cc(F)ccc2F)nn1 | 934 s |
| CCN1CCC(N(Cc2ccc3c(c2)OCO3)C(=O)Nc2ccc(OC)cc2)CC1 | 641 s |
| Cc1ccc(-c2nc3cnccn3c2NCCC(=O)O)cc1 | 610 s |
| O=C(C1CCN(c2ncccc2-c2nc(-c3cccc(F)c3)no2)CC1)N1CCC2(CC1)OCCO2 | 1010 s |
| COc1cccc(NC(=O)Nc2c(-c3ccsc3)nc3ccccn23)c1 | 639 s |
| Cc1nc(-c2noc(-c3ccccc3)n2)cn1CC(=O)N1CCN(c2ccc(F)cc2)CC1 | 868 s |
| Cc1cc(C)cc(NC(=O)N2CCN(c3cc(-c4cccnc4)[nH]n3)CC2)c1 | 644 s |
| O=C(NCCc1cccs1)c1nnc(-c2ccc(S(=O)(=O)N3CCCC3)cc2)o1 | 889 s |
| Nc1ccc(N2C(=O)c3ccccc3C2=O)c(Cl)c1 | 884 s |
| Cc1cccc(-c2noc(-c3nc(C)no3)n2)c1 | 1050 s |
| Cc1ccc(Cc2nc(-c3ccc(S(=O)(=O)N4CCC(C(=O)N5CCCC5)CC4)cc3)no2)cc1 | 1060 s |
| Cc1ccccc1OCC(=O)N1CCN(c2nc(CN3CCOCC3)cs2)CC1 | 653 s |
| Fc1ccc(-c2nc3cnccn3c2Nc2ccc3c(c2)OCCO3)cc1 | 818 s |
| CCc1nncn1C1CCN(S(=O)(=O)c2ccc(C)c(Cl)c2)CC1 | 754 s |
| Cc1sc2ccn(C)c(=O)c2c1C(=O)N1CCCCCC1 | 705 s |
| CCc1nc(-c2ccc(-c3noc(-c4ccnn4C)n3)cc2)cs1 | 1220 s |
| COc1ccccc1-c1nc2cnccn2c1NCCC(=O)N(C)C | 596 s |
| CCN(CC)c1ccc(NC(=O)c2cccs2)cc1C(=O)O | 626 s |
| COc1cc(NC(=O)N2CCC(n3c(C)nc4cccnc43)CC2)cc(OC)c1OC | 569 s |
| Brc1ccc(-c2ccc(CNCC3CCCO3)o2)cc1 (stereo not given) | 703 s |
| C[C@H](NC(=O)[C@H](Cc1ccccc1)NC(=O)OCc1ccccc1)C(=O)CF | 824 s |

| SMILES | RP-LC retention time |
| --- | --- |
| Cc1nn(-c2ccc(N3CCOCC3)nn2)c(C)c1CCC(=O)N1CCN(c2ccccn2)CC1 | 578 s |
| O=C(Nc1ccc(Br)cc1F)N1CCc2nc[nH]c2C1 | 593 s |
| CCOC(=O)C1CCc2sc(NC(=O)Cc3sc(C)nc3C)nc21 (stereo not given) | 639 s |
| CCn1nccc1C(=O)Nc1ccc(-n2cnnn2)cc1 | 652 s |
| O=C(COC(=O)c1ccco1)Nc1ccc2c(c1)OCO2 | 688 s |
| O=C(Cc1cccc(C(F)(F)F)c1)N1CCc2nc[nH]c2C1 | 612 s |
| CCOC(=O)c1c(C)c(C(=O)NCc2ccccc2Cl)c(C)n1CC | 929 s |
| CCc1ccc(S(=O)(=O)N2CCC(n3cnnc3C)CC2)cc1 | 715 s |
| O=C(CN1CC(c2nc(Cc3ccccc3)no2)C1)NCc1ccc(F)cc1 | 595 s |
| CC1CCN(C(=O)C2CC(=O)N(c3ccccc3)C2)CC1 (stereo not given) | 764 s |
| CCc1nc2c(=O)n(CC(=O)N3CCCCCC3)nc(C)c2s1 | 706 s |
| O=C(COc1cccc(C(F)(F)F)c1)N1CCN(c2ccc(-c3ccco3)nn2)CC1 | 739 s |
| CN(c1ccccc1)S(=O)(=O)c1ccc(C(=O)Nc2nccs2)cc1 | 807 s |
| CCc1ccc(C2=C(C)C(N3CCCN(C(=O)C(C)CC)CC3)=NS2(=O)=O)cc1 (stereo not given) | 888 s |
| CN(C)c1cccc(C(=O)Nc2ccc(CC(=O)NC(C)(C)CO)cc2)c1 | 594 s |
| Cc1ccc2nc(C(=O)NC(C)c3ccc(F)cc3)cn2c1 (stereo not given) | 670 s |
| COc1ccc(-c2ncc3c(n2)CCN(S(=O)(=O)Cc2ccc(C)cc2)C3)cc1 | 1050 s |
| O=C(NCc1csc(C2CCCN(C(=O)c3ccc(F)cc3F)C2)n1)C1CC1 (stereo not given) | 717 s |
| O=C(c1ccoc1)N1CCC(c2nc(-c3ccccc3)no2)C1 (stereo not given) | 773 s |

Continued, values first:

| RP-LC retention time | SMILES |
| --- | --- |
| 996 s | CC(=O)c1ccc(NC(=O)CN2C(=O)C3CCCCN3c3ccc(C(=O)N4CCCC4)cc32)cc1 (stereo not given) |
| 863 s | O=C(CN1C(=O)CC(c2ccccc2)S(=O)(=O)c2ccccc21)Nc1cccc(F)c1 (stereo not given) |
| 596 s | O=C(Cn1c(=O)n(-c2ccccc2)c2ncccc21)N1CCN(c2ccccn2)CC1 |
| 841 s | Cc1ccc(NC(=O)Cn2c(=O)c(CCC(=O)NC3CCCC3)nc3ccccc32)c(C)c1 |
| 765 s | Cc1ccc(S(=O)(=O)N2CCCC(CCC(=O)NC3CCS(=O)(=O)C3)C2)cc1 (stereo not given) |
| 608 s | Cc1cncn(CC(=O)Nc2ccccc2Cl)c1=O |
| 1110 s | CCOc1ccc(NC(=O)c2cn(-c3cc(N4CCC(C)CC4)ncn3)cn2)cc1 |
| 869 s | Cc1cc(S(=O)(=O)N2CCC(n3cnnc3-c3ccccc3)CC2)ccc1Cl |
| 755 s | COc1ccc(-c2cn3c(CC(=O)Nc4ccccc4C(F)(F)F)csc3n2)cc1OC |
| 935 s | COc1ccc(Cl)cc1S(=O)(=O)N1CCCC(C(=O)NCCc2ccccc2)C1 (stereo not given) |
| 625 s | O=C(NC1CCCC1)c1c[nH]c2ncccc12 |
| 727 s | Cc1cc2c(=O)n(CC(=O)NCc3cccc(Cl)c3)c3cccnc3n2n1 |
| 819 s | CCOc1ccccc1NC(=O)N1C[C@@H](F)C[C@H]1C(=O)N1CCc2ccccc2C1 |
| 714 s | COCCn1c(=O)c2cc(C(=O)Nc3ccccc3)nn2c2ccccc21 |
| 1140 s | COc1ccccc1C(=O)Nc1cccn2nc(C3CCC3)nc12 |
| 725 s | CC(C(=O)NCCCN(C)Cc1ccccc1)n1c(=O)c(C(F)(F)F)nc2ccccc21 (stereo not given) |
| 754 s | CC(C)c1ccc(NC(=O)Cn2cnc3nc(N4CCCC(C(=O)NC5CC5)C4)sc3c2=O)cc1 (stereo not given) |
| 1140 s | Cc1ccc(NC(=O)c2cc(C)n3nc(C)cc3n2)c(C)c1 |
| 968 s | O=C(NCc1ccccc1Cl)C(=O)c1cn(CC(=O)N2CCCC2)c2ccccc12 |
| 936 s | CCOC(=O)C1CCCN(c2nc(-c3ccc(Cl)cc3)nc3ccccc23)C1 (stereo not given) |
| 676 s | CCN(CC)c1ccc(NC(=O)C2Cc3cc(S(=O)(=O)N4CCCC4)ccc3N2C(C)=O)c(C)c1 (stereo not given) |
| 948 s | CCCCNC(=O)C1CCN(C(=O)c2cc3ccsc3n2Cc2cccc(OC)c2)CC1 |
| 1040 s | Cc1ccc(C)c(S(=O)(=O)N2CC(c3nc(Cc4ccccc4)no3)C2)c1 |
| 930 s | CCS(=O)(=O)N1CC(=O)N(c2cccc(C)c2C)C(C)(C(=O)NC2CCCCCC2)C1 (stereo not given) |
| 747 s | CCc1cc(=O)n(CC(=O)NCc2ccc(C)cc2)c(N2CCOCC2)n1 |
| 659 s | COc1ccc(CC(=O)NC2CCN(c3cc(-c4ccccc4)[nH]n3)C2)cc1OC (stereo not given) |
| 875 s | CC(NC(=O)C1c2ccccc2CCN1C(=O)C1CC1)c1ccc(F)cc1 (stereo not given) |
| 938 s | Cc1c(Cl)cccc1N1C(=O)CN(S(C)(=O)=O)CC1(C)C(=O)NC1CCCCCC1 (stereo not given) |
| 763 s | CN(Cc1ccccc1)C(=O)c1ccc(CN2CCN(C3CCCC3)C(=O)C2=O)cc1 |
